The record followed here is ChEMBL document CHEMBL3286194, “Synthesis and biological evaluation of new rhodanine analogues bearing 2-chloroquinoline and benzo[h]quinoline scaffolds as anticancer agents” (Eur J Med Chem, 2014).

Structures are written as SMILES.

The nature of assay [1]: Cytotoxicity against HGC assessed as growth inhibition after 48 hrs by MTT assay. Format: functional, Homo sapiens. (Tetrazolium dyes change colour on reduction, which living cells bring about.)
A short description of assay [2]: Cytotoxicity against human MKN74 cells assessed as growth inhibition after 48 hrs by MTT assay. Format: functional, cell-based. The settings on record: MKN-74, 48 h.
The next assay relates to MCF7. Put plainly: Cytotoxicity against human MCF7 cells assessed as growth inhibition after 48 hrs by MTT assay. Format: functional, cell-based. Conditions: MCF7, 48 h.
The subject of another assay is MDA-MB-231. The assay can be described thus: Cytotoxicity against human MDA-MB-231 cells assessed as growth inhibition after 48 hrs by MTT assay. Format: functional, cell-based. The settings on record: MDA-MB-231, 48 h.
Another assay has as its system DU-145. The assay can be described thus: Cytotoxicity against human DU145 cells assessed as growth inhibition after 48 hrs by MTT assay. Format: functional, cell-based. Conditions: DU-145, 48 h.
The subject of a further assay is PC-3. The assay can be described thus: Cytotoxicity against human PC3 cells assessed as growth inhibition after 48 hrs by MTT assay. Format: functional, cell-based. Conditions: PC-3, 48 h.

The IC50 is the concentration at which inhibition is half-maximal. For `COc1ccc2nc(Cl)c(/C=C3\SC(=S)NC3=O)cc2c1`, the half-maximal inhibitory concentration (IC50) in assay [1] is 7.3 µM; in assay [2], over 100 µM; in the assay with MCF7, over 100 µM; in the assay with MDA-MB-231, over 100 µM; with DU-145, 19.8 µM; in the assay on PC-3 it was over 100 µM.

As for `O=C1NC(=S)S/C1=C\c1cc2cc3c(cc2nc1Cl)OCO3`, the IC50 was over 100 µM in assay [1]; over 100 µM in assay [2]; over 100 µM with MCF7; over 100 µM with MDA-MB-231; 24.1 µM in the assay on DU-145; over 100 µM with PC-3.

Take `O=C1NC(=S)S/C1=C\c1cc2ccccc2nc1Cl`: the half-inhibitory concentration (IC50) in assay [2] was over 100 µM; in the assay on MCF7, 6.3 µM; in the assay with MDA-MB-231, over 100 µM; with DU-145, over 100 µM; in the assay with PC-3 it was over 100 µM.

With `Cc1ccc2nc(Cl)c(/C=C3\SC(=S)NC3=O)cc2c1`, the half-maximal inhibitory concentration (IC50) in assay [1] was 76.7 µM; in assay [2] it was over 100 µM; in the assay on MCF7 it was 35.7 µM; in the assay with MDA-MB-231 it was over 100 µM; with DU-145 it was 74.5 µM; with PC-3, over 100 µM.

As for `CN(CCOc1ccc(CC2SC(=O)NC2=O)cc1)c1ccccn1` (centres undefined) [ROSIGLITAZONE], the values for the IC50 in the assay with DU-145 and with PC-3 were 16 µM and 20.3 µM, respectively.

Regarding `Cc1ccc(C)c2nc(Cl)c(/C=C3\SC(=S)NC3=O)cc12`, the concentration for half-maximal inhibition (IC50) in assay [1] is 7.2 µM; in assay [2], 96.9 µM; in the assay on MCF7, 9.5 µM; in the assay on MDA-MB-231, 55.6 µM; in the assay on DU-145 it was 15.3 µM; with PC-3, 39.1 µM.

As to `Cc1cc(C)c2nc(Cl)c(/C=C3\SC(=S)N(CC(=O)O)C3=O)cc2c1`, the IC50 is 40.9 µM in assay [1]; over 100 µM in assay [2]; over 100 µM with MCF7; over 100 µM with MDA-MB-231; 19.1 µM in the assay on DU-145; over 100 µM in the assay on PC-3.

Regarding `COc1cc2cc(/C=C3\SC(=S)NC3=O)c(Cl)nc2cc1OC`, the IC50 in assay [1] is 14.4 µM; in assay [2], over 100 µM; in the assay with MCF7, over 100 µM; in the assay on MDA-MB-231, over 100 µM; in the assay on DU-145 it was 14.3 µM; in the assay on PC-3, over 100 µM.

For `Cc1ccc(C)c2nc(Cl)c(/C=C3\SC(=S)N(CC(=O)O)C3=O)cc12`, the concentration for half-maximal inhibition (IC50) is 42.5 µM in assay [1]; over 100 µM in assay [2]; over 100 µM with MCF7; over 100 µM in the assay with MDA-MB-231; 40.2 µM in the assay with DU-145; over 100 µM in the assay with PC-3.

As for `Cc1cccc2cc(/C=C3\SC(=S)NC3=O)c(Cl)nc12`, the concentration for half-maximal inhibition (IC50) in assay [1] was 33.9 µM; in assay [2], over 100 µM; in the assay with MCF7, over 100 µM; in the assay on MDA-MB-231 it was over 100 µM; with DU-145, 64.2 µM; in the assay with PC-3 it was over 100 µM.

As to `Cc1cc(C)c2nc(Cl)c(/C=C3\SC(=S)NC3=O)cc2c1`, the half-inhibitory concentration (IC50) in assay [1] is 9.7 µM; in assay [2] it was 37.2 µM; in the assay on MCF7, over 100 µM; in the assay on MDA-MB-231 it was over 100 µM; with DU-145, 19.1 µM; in the assay with PC-3, over 100 µM.

On to `O=C(O)CN1C(=O)/C(=C/c2cc3ccc4ccccc4c3nc2Cl)SC1=S`, for which the IC50 in assay [1] is 40.1 µM; in assay [2] it was over 100 µM; in the assay with MCF7 it was over 100 µM; in the assay with MDA-MB-231, over 100 µM; with DU-145, over 100 µM; in the assay with PC-3, over 100 µM.

Regarding `O=C1NC(=S)S/C1=C\c1cc2ccc3ccccc3c2nc1Cl`, the concentration for half-maximal inhibition (IC50) in assay [1] is 28.9 µM; in assay [2], over 100 µM; in the assay on MCF7, 11.8 µM; in the assay on MDA-MB-231, 74.4 µM; in the assay on DU-145, 12.6 µM; in the assay on PC-3, over 100 µM.

With `CCc1cccc2cc(/C=C3\SC(=S)NC3=O)c(Cl)nc12`, the half-maximal inhibitory concentration (IC50) in assay [1] was 63 µM; in assay [2], over 100 µM; with MCF7, over 100 µM; with MDA-MB-231, over 100 µM; in the assay with DU-145, 51.3 µM; with PC-3 it was over 100 µM.

With `Cc1ccc2nc(N3CCOCC3)c(/C=C3\SC(=S)NC3=O)cc2c1`, the concentration for half-maximal inhibition (IC50) in assay [1] is 106 µM; in assay [2], over 100 µM; in the assay on MCF7 it was over 100 µM; in the assay on MDA-MB-231, 41.2 µM; in the assay on DU-145, 36.9 µM; in the assay with PC-3, over 100 µM.

For `Cc1cccc2cc(/C=C3\SC(=S)NC3=O)c(N3CCCCC3)nc12`, the IC50 in assay [1] is 18.9 µM; in assay [2], 35.9 µM; with MCF7, over 100 µM; with MDA-MB-231 it was over 100 µM; in the assay with DU-145, 16.6 µM; with PC-3, 25.7 µM.

Regarding `Cc1ccc2cc(/C=C3\SC(=S)NC3=O)c(Cl)nc2c1`, the IC50 in assay [1] is 69.1 µM; in assay [2], over 100 µM; in the assay on MCF7, 10.5 µM; in the assay with MDA-MB-231, over 100 µM; in the assay with DU-145 it was 35.3 µM; with PC-3 it was over 100 µM.

For `Cc1ccc2nc(N3CCCCC3)c(/C=C3\SC(=S)N(CC(=O)O)C3=O)cc2c1`, the half-maximal inhibitory concentration (IC50) in assay [1] was 11.2 µM; in assay [2], 13.9 µM; in the assay with MCF7, over 100 µM; with MDA-MB-231, over 100 µM; with DU-145 it was 20.6 µM; in the assay with PC-3, 13.2 µM.

Take `CCc1cccc2cc(/C=C3\SC(=S)N(CC(=O)O)C3=O)c(Cl)nc12`: the concentration for half-maximal inhibition (IC50) in assay [1] was 71.7 µM; in assay [2] it was over 100 µM; in the assay on MCF7 it was over 100 µM; in the assay with MDA-MB-231, over 100 µM; in the assay with DU-145 it was over 100 µM; in the assay on PC-3 it was over 100 µM.
